Source: publication PMC11062899, “De novo development of small cyclic peptides that are orally bioavailable” (Nature Chemical Biology, 2023)
Several values for one entry are separate records, joined by “and”; a condition that tells them apart may be missing. Equal values may be shown once. Read-outs that look alike come from different tables or passages of the source.

Target: human α-thrombin (Homo sapiens, UniProt P00734)
Test: Protease inhibition, Ki for human α-thrombin (fluorogenic substrate Z-Gly-Gly-Arg-AMC)
Type: biochemical
Conditions: for IC50: read-out: IC50; for Human alpha thrombin inhibition, slope normalized to DMSO: replicates R1-R3
In short: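 Inhibition was measured as AMC fluorescence from 50 μM substrate, monitored for 30 min at 25 °C, relative to a peptide-free control. Human and rat enzymes were present at 2 nM and 3 nM final, respectively, in 50 mM Tris-HCl pH 7.4, 150 mM NaCl, 10 mM MgCl2, 1 mM CaCl2. Ki derives from fitted IC50 via Cheng–Prusoff.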

[1] = human alpha thrombin, individual replicates R1-R3
[2] = human alpha thrombin, individual replicates R1-R3, read-out: Ki
[3] = human alpha thrombin, average of R1-R3, read-out: Ki Average
[4] = peptide 1.33E+02 uM, slope of proteolytic substrate cleavage over time

IC50 [1]	Ki [2]	Ki [3] [nM]	Human alpha thrombin inhibition, slope normalized to DMSO (peptide 1.02E-03 uM)	Human alpha thrombin inhibition, slope normalized to DMSO (peptide 1.04E+00 uM)	Human alpha thrombin inhibition, slope normalized to DMSO (peptide 1.27E-04 uM)	Human alpha thrombin inhibition, slope normalized to DMSO (peptide 1.30E-01 uM)	Human alpha thrombin inhibition, slope normalized to DMSO [4]	Human alpha thrombin inhibition, slope normalized to DMSO (peptide 1.63E-02 uM)	Human alpha thrombin inhibition, slope normalized to DMSO (peptide 1.67E+01 uM)	Human alpha thrombin inhibition, slope normalized to DMSO (peptide 2.03E-03 uM)	Human alpha thrombin inhibition, slope normalized to DMSO (peptide 2.08E+00 uM)	Human alpha thrombin inhibition, slope normalized to DMSO (peptide 2.54E-04 uM)	Human alpha thrombin inhibition, slope normalized to DMSO (peptide 2.60E-01 uM)	Human alpha thrombin inhibition, slope normalized to DMSO (peptide 3.18E-05 uM)	Human alpha thrombin inhibition, slope normalized to DMSO (peptide 3.26E-02 uM)	Human alpha thrombin inhibition, slope normalized to DMSO (peptide 3.33E+01 uM)	Human alpha thrombin inhibition, slope normalized to DMSO (peptide 4.07E-03 uM)	Human alpha thrombin inhibition, slope normalized to DMSO (peptide 4.17E+00 uM)	Human alpha thrombin inhibition, slope normalized to DMSO (peptide 5.09E-04 uM)	SMILES	further results
1240 nM and 961 nM and 880 nM	952 nM and 740 nM and 678 nM	790	99.6 and 102.5 and 100.4	62.7 and 63.2 and 64.7	101.4 and 100.0 and 103.5	93.3 and 94.2 and 91.8	35.6 and 42.1 and 48.0	100.3 and 97.9 and 93.0	19.0 and 23.6 and 27.7	98.3 and 97.0 and 102.8	53.1 and 49.4 and 51.7	100.9 and 99.7	86.0 and 78.5 and 87.5	105.6 and 95.1 and 100.8	99.1 and 97.3 and 99.5	14.9 and 14.8 and 17.4	104.1 and 99.4 and 102.2	44.0 and 45.0 and 45.3	89.0 and 97.2 and 100.9	CN1CCC(=O)NCCSCCS(=O)(=O)CCSC[C@H](NC(=O)c2ccc(Cl)s2)C(=O)N[C@@H](Cc2ccccc2)C1=O [compound 14]	Human alpha thrombin inhibition, slope normalized to DMSO (peptide 5.21E-01 uM): 80.8 and 75.1 and 78.9; Human alpha thrombin inhibition, slope normalized to DMSO (peptide 6.36E-05 uM): 99.9 and 99.1 and 102.2; Human alpha thrombin inhibition, slope normalized to DMSO (peptide 6.51E-02 uM): 97.0 and 92.8 and 96.0; Human alpha thrombin inhibition, slope normalized to DMSO (peptide 6.67E+01 uM): 27.9 and 32.4 and 47.7; Human alpha thrombin inhibition, slope normalized to DMSO (peptide 8.14E-03 uM): 99.8 and 97.9 and 99.0; Human alpha thrombin inhibition, slope normalized to DMSO (peptide 8.33E+00 uM): 29.9 and 28.6 and 29.1
122 nM and 107 nM and 104 nM	94.1 nM and 82.8 nM and 80.4 nM	85.8	92.7 and 96.3 and 98.1	14.1 and 15.4 and 19.5	98.4 and 100.1 and 101.4	51.2 and 52.1 and 48.8	8.1 and 8.7 and 9.0	87.3 and 78.8 and 85.1	9.8 and 9.6 and 8.8	100.0 and 90.9 and 98.1	10.6 and 11.3 and 7.9	99.0 and 98.6 and 98.3	38.3 and 36.0 and 36.6	100.0 and 103.6 and 101.9	77.4 and 76.3	8.8 and 8.2 and 6.8	95.6 and 92.2 and 94.3	-2.0 and 6.9 and 2.0	98.9 and 97.6 and 107.7	O=C1C[C@H]2CCCN2C(=O)[C@H](Cc2ccccc2)NC(=O)[C@@H](NC(=O)c2ccc(Cl)s2)CSCCS(=O)(=O)CCSCCN1 [peptide 11]	Human alpha thrombin inhibition, slope normalized to DMSO (peptide 5.21E-01 uM): 24.9 and 24.6 and 25.0; Human alpha thrombin inhibition, slope normalized to DMSO (peptide 6.36E-05 uM): 101.3 and 99.0 and 104.0; Human alpha thrombin inhibition, slope normalized to DMSO (peptide 6.51E-02 uM): 65.9 and 65.1 and 64.6; Human alpha thrombin inhibition, slope normalized to DMSO (peptide 6.67E+01 uM): 8.2 and 10.4 and 4.8; Human alpha thrombin inhibition, slope normalized to DMSO (peptide 8.14E-03 uM): 92.7 and 91.1 and 94.4; Human alpha thrombin inhibition, slope normalized to DMSO (peptide 8.33E+00 uM): 14.8 and 11.1; Ki (purified peptide, mean and s.d. of three measurements, read-out: Ki human α-thrombin): 82 ± 10 nM; Ki (single replicates R1-R3, read-out: Ki (nM), human alpha thrombin inhibition): 94.1 nM and 82.8 nM and 80.4 nM
